Tests used:
Assay in all cases: Test D controlled growth environment herbicide test, pre- and postemergence
Format in all cases: in vivo
[1] = system: speedwell (bird's-eye speedwell, Veronica persica)
From the text: (§1) Seeds of plant species selected from bluegrass (annual bluegrass, Poa annua), blackgrass (Alopecurus myosuroides), Canada thistle (Cirsium arvense), canarygrass (Phalaris minor), chickweed (common chickweed, Stellaria media), geranium, cutleaf (cutleaf geranium, Geranium dissectum), galium (catchweed bedstraw, Galium aparine), bromegrass, downy (downy bromegrass, Bromus tectorum), field poppy (Papaver rhoeas), field violet (Viola arvensis), foxtail, green (green foxtail, Setaria viridis), deadnettle (henbit deadnettle, Lamium amplexicaule), ryegrass, Italian (Italian ryegrass, Lolium multiflorum), kochia (Kochia scoparia), lambsquarters (Chenopodium album), oilseed rape (Brassica napus), pigweed (Amaranthus retroflexus), chamomile (scentless chamomile, Matricaria inodora), Russian thistle (Salsola kali), speedwell (bird's-eye speedwell, Veronica persica), barley, spring (spring barley, Hordeum vulgare), wheat, spring (spring wheat, Triticum aestivum), buckwheat, wild (wild buckwheat, Polygonum convolvulus), mustard, wild (wild mustard, Sinapis arvensis), oat, wild (wild oat, Avena fatua), radish, wild (wild radish, Raphanus raphanistrum), windgrass (Apera spica-venti), barley, winter (winter barley, Hordeum vulgare), and wheat, winter (winter wheat, Triticum aestivum) were planted into a silt loam soil and treated preemergence with test chemicals formulated in a non-phytotoxic solvent mixture which included a surfactant.
(§2) At the same time, these species were planted in pots containing Redi-Earth® planting medium (Scotts Company, 14111 Scottslawn Road, Marysville, Ohio 43041) comprising spaghnum peat moss, vermiculite, wetting agent and starter nutrients and treated with postemergence applications of the test chemicals formulated in the same manner. Plants ranged in height from 2 to 18 cm (1- to 4-leaf stage). Treated plants and controls were maintained in a controlled growth environment for 14 to 21 d after which time all species were compared to controls and visually evaluated. Plant response ratings, summarized in Table D, are based on a scale of 0 to 100 where 0 is no effect and 100 is complete control. A dash (-) response means no test result.

[2] = system: lambsquarters (Chenopodium album)
From the text: as §1, §2

[3] = system: chickweed (common chickweed, Stellaria media)
From the text: as §1, §2

[4] = system: Russian thistle (Salsola kali)
From the text: as §1, §2

kochia (Kochia scoparia) = system: kochia (Kochia scoparia)
From the text: as §1, §2

[5] = system: field poppy (Papaver rhoeas)
From the text: as §1, §2

[6] = system: bromegrass, downy (downy bromegrass, Bromus tectorum)
From the text: as §1, §2

[7] = system: mustard, wild (wild mustard, Sinapis arvensis)
From the text: as §1, §2

[8] = system: galium (catchweed bedstraw, Galium aparine)
From the text: as §1, §2

[9] = system: barley, winter (winter barley, Hordeum vulgare)
From the text: as §1, §2

[10] = system: wheat, winter (winter wheat, Triticum aestivum)
From the text: as §1, §2

[11] = system: windgrass (Apera spica-venti)
From the text: as §1, §2

[12] = system: deadnettle (henbit deadnettle, Lamium amplexicaule)
From the text: as §1, §2

[13] = Postemergence, 31 g ai/ha, scale 0 to 100 (0 no effect, 100 complete control)
[14] = Postemergence, 125 g ai/ha, visual rating on scale 0 (no effect) to 100 (complete control), 14 to 21 d
[15] = Postemergence, 250 g ai/ha, scale 0 to 100 (0 no effect, 100 complete control)
[16] = Preemergence, 125 g ai/ha, scale 0 to 100 (0 no effect, 100 complete control)
[17] = Preemergence, 250 g ai/ha, scale 0 to 100 (0 no effect, 100 complete control)
[18] = postemergence, 62 g ai/ha, scale 0 to 100, 0 no effect, 100 complete control
[19] = Preemergence, 62 g ai/ha, scale 0 to 100 (0 no effect, 100 complete control)

SMILES: CC(=O)Oc1c(C)nn(C)c(=O)c1-c1c(C)cc(C)c2ccccc12 [Compound 153]
- Speedwell plant response rating [1, 13]: 75
- Plant response rating, Speedwell [1, 14]: 90
- Plant response rating, Speedwell [1, 15]: 100
- Plant response rating (scale of 0 to 100), Speedwell ([1]; Preemergence, 31 g ai/ha): 100
- Plant response rating (scale of 0 to 100), Speedwell ([1]; Preemergence, 62 g ai/ha): 100
- Plant response rating, Speedwell [1, 16]: 100
- Plant response rating, Speedwell [1, 17]: 100
- Plant response rating, Speedwell [1, 18]: 75
- Lambsquarters plant response rating [2, 13]: 75
- Plant response rating, Lambsquarters [2, 14]: 65
- Plant response rating, Lambsquarters [2, 15]: 75
- Plant response rating (scale of 0 to 100), Lambsquarters ([2]; Preemergence, 31 g ai/ha): 70
- Plant response rating (scale of 0 to 100), Lambsquarters ([2]; Preemergence, 62 g ai/ha): 85
- Plant response rating, Lambsquarters [2, 16]: 100
- Plant response rating, Lambsquarters [2, 17]: 100
- Plant response rating, Lambsquarters [2, 18]: 65
- Chickweed plant response rating [3, 13]: 80
- Plant response rating, Chickweed [3, 14]: 85
- Plant response rating, Chickweed [3, 15]: 100
- Plant response rating (scale of 0 to 100), Chickweed ([3]; Preemergence, 31 g ai/ha): 98
- Plant response rating (scale of 0 to 100), Chickweed ([3]; Preemergence, 62 g ai/ha): 100
- Plant response rating, Chickweed [3, 16]: 100
- Plant response rating, Chickweed [3, 17]: 100
- Plant response rating, Chickweed [3, 18]: 85
- Russian Thistle plant response rating [4, 13]: 25
- Plant response rating, Russian Thistle [4, 14]: 45
- Plant response rating, Russian Thistle [4, 15]: 55
- Plant response rating (scale of 0 to 100), Russian Thistle ([4]; Preemergence, 31 g ai/ha): 0
- Plant response rating (scale of 0 to 100), Russian Thistle ([4]; Preemergence, 62 g ai/ha): 15
- Plant response rating, Russian Thistle [4, 16]: 60
- Plant response rating, Russian Thistle [4, 17]: 100
- Plant response rating, Russian Thistle [4, 18]: 20
- Kochia plant response rating (kochia (Kochia scoparia); [13]): 20
- Plant response rating, Kochia (kochia (Kochia scoparia); [14]): 30
- Plant response rating, Kochia (kochia (Kochia scoparia); [15]): 35
- Plant response rating (scale of 0 to 100), Kochia (kochia (Kochia scoparia); Preemergence, 31 g ai/ha): 20
- Plant response rating (scale of 0 to 100), Kochia (kochia (Kochia scoparia); Preemergence, 62 g ai/ha): 50
- Plant response rating, Kochia (kochia (Kochia scoparia); [16]): 25
- Plant response rating, Kochia (kochia (Kochia scoparia); [17]): 70
- Plant response rating, Kochia (kochia (Kochia scoparia); [18]): 15
- Field Poppy plant response rating [5, 13]: 75
- Plant response rating, Field Poppy [5, 14]: 100
- Plant response rating, Field Poppy [5, 15]: 100
- Plant response rating (scale of 0 to 100), Field Poppy ([5]; Preemergence, 31 g ai/ha): 100
- Plant response rating (scale of 0 to 100), Field Poppy ([5]; Preemergence, 62 g ai/ha): 100
- Plant response rating, Field Poppy [5, 16]: 100
- Plant response rating, Field Poppy [5, 17]: 100
- Plant response rating, Field Poppy [5, 18]: 95
- Bromegrass, Downy plant response rating [6, 13]: 25
- Plant response rating, Bromegrass, Downy [6, 14]: 65
- Plant response rating, Bromegrass, Downy [6, 15]: 70
- Plant response rating (scale of 0 to 100), Bromegrass, Downy ([6]; Preemergence, 31 g ai/ha): 75
- Plant response rating, Bromegrass, Downy [6, 19]: 75
- Plant response rating, Bromegrass, Downy [6, 16]: 85
- Plant response rating, Bromegrass, Downy [6, 17]: 95
- Plant response rating, Bromegrass, Downy [6, 18]: 35
- Mustard, Wild plant response rating [7, 13]: 98
- Plant response rating, Mustard, Wild [7, 14]: 100
- Plant response rating, Mustard, Wild [7, 15]: 100
- Plant response rating (scale of 0 to 100), Mustard, Wild ([7]; Preemergence, 31 g ai/ha): 100
- Plant response rating (scale of 0 to 100), Mustard, Wild ([7]; Preemergence, 62 g ai/ha): 100
- Plant response rating, Mustard, Wild [7, 16]: 100
- Plant response rating, Mustard, Wild [7, 17]: 100
- Plant response rating, Mustard, Wild [7, 18]: 98
- Galium plant response rating [8, 13]: 100
- Plant response rating, Galium [8, 14]: 100
- Plant response rating, Galium [8, 15]: 100
- Plant response rating (scale of 0 to 100), Galium ([8]; Preemergence, 31 g ai/ha): 85
- Plant response rating (scale of 0 to 100), Galium ([8]; Preemergence, 62 g ai/ha): 95
- Plant response rating, Galium [8, 16]: 95
- Plant response rating, Galium [8, 17]: 98
- Plant response rating, Galium [8, 18]: 100
- Barley, Winter plant response rating [9, 13]: 0
- Plant response rating, Barley, Winter [9, 14]: 10
- Plant response rating, Barley, Winter [9, 15]: 25
- Plant response rating (scale of 0 to 100), Barley, Winter ([9]; Preemergence, 31 g ai/ha): 0
- Plant response rating, Barley, Winter [9, 19]: 10
- Plant response rating, Barley, Winter [9, 16]: 25
- Plant response rating, Barley, Winter [9, 17]: 40
- Plant response rating, Barley, Winter [9, 18]: 5
- Wheat, Winter plant response rating [10, 13]: 10
- Plant response rating, Wheat, Winter [10, 14]: 25
- Plant response rating, Wheat, Winter [10, 15]: 35
- Plant response rating (scale of 0 to 100), Wheat, Winter ([10]; Preemergence, 31 g ai/ha): 5
- Plant response rating (scale of 0 to 100), Wheat, Winter ([10]; Preemergence, 62 g ai/ha): 20
- Plant response rating, Wheat, Winter [10, 16]: 45
- Plant response rating, Wheat, Winter [10, 17]: 50
- Plant response rating, Wheat, Winter [10, 18]: 15
- Windgrass plant response rating [11, 13]: 25
- Plant response rating, Windgrass [11, 14]: 65
- Plant response rating, Windgrass [11, 15]: 75
- Plant response rating (scale of 0 to 100), Windgrass ([11]; Preemergence, 31 g ai/ha): 75
- Plant response rating (scale of 0 to 100), Windgrass ([11]; Preemergence, 62 g ai/ha): 80
- Plant response rating, Windgrass [11, 16]: 80
- Plant response rating, Windgrass [11, 17]: 95
- Plant response rating, Windgrass [11, 18]: 30
- Deadnettle plant response rating [12, 13]: 70
- Plant response rating, Deadnettle [12, 14]: 80
- Plant response rating, Deadnettle [12, 15]: 90
- Plant response rating (scale of 0 to 100), Deadnettle ([12]; Preemergence, 31 g ai/ha): 98
- Plant response rating (scale of 0 to 100), Deadnettle ([12]; Preemergence, 62 g ai/ha): 100
- Plant response rating, Deadnettle [12, 16]: 100
- Plant response rating, Deadnettle [12, 17]: 100
- Plant response rating, Deadnettle [12, 18]: 75
